Earlier results, collected in paper PMC9516332 (Frontiers in Oncology, 2022).
Read-outs that look alike come from different tables or passages of the source.

Columns and labels:
Details in all cases: cited from earlier work
[1] = molecular target: T1, panel of 255 wild-type kinases (Homo sapiens, UniProt O94806)
T1 sequence (O94806 1-890): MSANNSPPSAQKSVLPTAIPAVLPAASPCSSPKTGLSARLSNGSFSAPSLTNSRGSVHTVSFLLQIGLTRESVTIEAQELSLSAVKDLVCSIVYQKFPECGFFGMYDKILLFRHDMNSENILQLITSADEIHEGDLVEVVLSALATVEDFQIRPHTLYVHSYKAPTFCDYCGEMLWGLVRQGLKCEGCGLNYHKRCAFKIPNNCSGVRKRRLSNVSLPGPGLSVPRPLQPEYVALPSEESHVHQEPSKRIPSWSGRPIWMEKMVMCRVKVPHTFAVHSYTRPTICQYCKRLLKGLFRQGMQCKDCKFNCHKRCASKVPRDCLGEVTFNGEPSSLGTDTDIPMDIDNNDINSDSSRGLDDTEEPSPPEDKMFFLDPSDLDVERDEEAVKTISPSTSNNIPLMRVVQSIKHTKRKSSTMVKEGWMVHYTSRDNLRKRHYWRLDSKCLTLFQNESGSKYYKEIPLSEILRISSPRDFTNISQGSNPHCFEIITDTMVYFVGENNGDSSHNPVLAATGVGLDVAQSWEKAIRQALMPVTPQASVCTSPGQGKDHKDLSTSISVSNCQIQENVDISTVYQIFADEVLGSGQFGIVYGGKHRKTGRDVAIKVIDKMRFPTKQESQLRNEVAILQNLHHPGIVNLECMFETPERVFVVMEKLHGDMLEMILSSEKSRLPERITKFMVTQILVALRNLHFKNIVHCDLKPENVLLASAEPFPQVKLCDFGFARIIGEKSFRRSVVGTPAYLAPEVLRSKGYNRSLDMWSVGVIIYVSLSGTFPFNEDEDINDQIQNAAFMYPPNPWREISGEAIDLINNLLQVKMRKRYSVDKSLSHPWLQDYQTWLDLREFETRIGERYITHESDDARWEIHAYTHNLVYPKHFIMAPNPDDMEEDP

[2] = molecular target: panel of 255 wild-type kinases (Homo sapiens, UniProt P00533)
[3] = molecular target: panel of 255 wild-type kinases (Homo sapiens, UniProt P04629)
[4] = molecular target: panel of 255 wild-type kinases (Homo sapiens, UniProt P31751)
[5] = molecular target: panel of 255 wild-type kinases (Homo sapiens, UniProt P49761)
[6] = molecular target: T2, panel of 255 wild-type kinases (Homo sapiens, UniProt Q9HBY8)
T2 sequence (Q9HBY8 1-367): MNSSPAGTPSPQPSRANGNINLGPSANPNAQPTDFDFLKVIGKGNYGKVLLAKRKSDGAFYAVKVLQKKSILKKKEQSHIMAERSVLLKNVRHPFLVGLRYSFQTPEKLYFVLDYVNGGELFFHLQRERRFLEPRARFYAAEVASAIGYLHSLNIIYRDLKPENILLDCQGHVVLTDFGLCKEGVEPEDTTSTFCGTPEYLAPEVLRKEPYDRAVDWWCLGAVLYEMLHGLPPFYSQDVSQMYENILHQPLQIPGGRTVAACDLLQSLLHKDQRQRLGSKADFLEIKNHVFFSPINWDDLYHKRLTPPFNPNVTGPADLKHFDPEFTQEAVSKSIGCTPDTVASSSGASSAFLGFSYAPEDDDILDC

[7] = test system: panel of 255 wild-type kinases
[8] = kinase PKD3, 1 µmol/L single concentration, ref DOI: 10.1371/journal.pone.0092146
[9] = kinase EGFR, 1 µmol/L single concentration, ref DOI: 10.1371/journal.pone.0092146
[10] = kinase TRKA, 1 µmol/L single concentration, ref DOI: 10.1371/journal.pone.0092146
[11] = AKT2 kinase assay, 1 µmol/L single concentration, ref DOI: 10.1371/journal.pone.0092146
[12] = kinase CLK3, 1 µmol/L single concentration, ref DOI: 10.1371/journal.pone.0092146
[13] = kinase SGK2, 1 µmol/L single concentration, ref DOI: 10.1371/journal.pone.0092146
[14] = kinase LYNb, 1 µmol/L single concentration, ref DOI: 10.1371/journal.pone.0092146
[15] = kinase PKCβ2, 1 µmol/L single concentration, ref DOI: 10.1371/journal.pone.0092146
[16] = kinase SRM, 1 µmol/L single concentration, ref DOI: 10.1371/journal.pone.0092146
[17] = kinase PKD3, 1 µmol/L single concentration, ref DOI: 10.1158/1535-7163.MCT-18-0877
[18] = kinase TRKA, 1 µmol/L single concentration, ref DOI: 10.1158/1535-7163.MCT-18-0877
[19] = AKT2 kinase assay, 1 µmol/L single concentration, ref DOI: 10.1158/1535-7163.MCT-18-0877
[20] = kinase CLK3, 1 µmol/L single concentration, ref DOI: 10.1158/1535-7163.MCT-18-0877
[21] = kinase SGK2, 1 µmol/L single concentration, ref DOI: 10.1158/1535-7163.MCT-18-0877
[22] = kinase FYN [isoform b], 1 µmol/L single concentration, ref DOI: 10.1158/1535-7163.MCT-18-0877
[23] = kinase LYNb, 1 µmol/L single concentration, ref DOI: 10.1158/1535-7163.MCT-18-0877
[24] = kinase PKCβ2, 1 µmol/L single concentration, ref DOI: 10.1158/1535-7163.MCT-18-0877
[25] = kinase SRM, 1 µmol/L single concentration, ref DOI: 10.1158/1535-7163.MCT-18-0877
[26] = kinase EGFR, 1 µmol/L single concentration, ref DOI: 10.1158/1535-7163.MCT-18-0877

| Structure (SMILES) | %-inhibition at 1 µmol/L, CLK3 [5, 12] [%] | %-inhibition at 1 µmol/L, SGK2 [6, 13] [%] | %-inhibition at 1 µmol/L, PKD3 [1, 17] [%] | %-inhibition at 1 µmol/L, TRKA [3, 18] [%] | %-inhibition AKT2 [4, 19] [%] | %-inhibition at 1 µmol/L, CLK3 [5, 20] [%] | %-inhibition at 1 µmol/L, SGK2 [6, 21] [%] | %-inhibition at 1 µmol/L, FYN [isoform b] [7, 22] [%] | %-inhibition at 1 µmol/L, LYNb [7, 23] [%] | %-inhibition at 1 µmol/L, PKCβ2 [7, 24] [%] | %-inhibition at 1 µmol/L, SRM [7, 25] [%] | also measured |
| --- | --- | --- | --- | --- | --- | --- | --- | --- | --- | --- | --- | --- |
| CCCS(=O)(=O)Nc1ccc(F)c(C(=O)c2c[nH]c3ncc(-c4ccc(Cl)cc4)cc23)c1F [vemurafenib] | -14 | 2.66 | – | – | – | – | – | – | – | – | – | %-inhibition at 1 µmol/L, PKD3 [1, 8]: -4.7%; %-inhibition at 1 µmol/L, EGFR [2, 9]: 7%; %-inhibition at 1 µmol/L, TRKA [3, 10]: 16%; %-inhibition AKT2 [4, 11]: -3%; %-inhibition at 1 µmol/L, LYNb [7, 14]: 62%; %-inhibition at 1 µmol/L, PKCβ2 [7, 15]: -3%; %-inhibition at 1 µmol/L, SRM [7, 16]: 102% |
| CC(=O)Nc1cccc(-n2c(=O)n(C3CC3)c(=O)c3c(Nc4ccc(I)cc4F)n(C)c(=O)c(C)c32)c1 [trametinib] | -0.0684 | -7 | – | – | – | – | – | – | – | – | – | %-inhibition at 1 µmol/L, PKD3 [1, 8]: 2.48%; %-inhibition at 1 µmol/L, EGFR [2, 9]: -0.0959%; %-inhibition at 1 µmol/L, TRKA [3, 10]: -1.17%; %-inhibition AKT2 [4, 11]: -8%; %-inhibition at 1 µmol/L, LYNb [7, 14]: -2.58%; %-inhibition at 1 µmol/L, PKCβ2 [7, 15]: -1.58%; %-inhibition at 1 µmol/L, SRM [7, 16]: -4% |
| CCc1cc2c(cc1N1CCC(N3CCOCC3)CC1)C(C)(C)c1[nH]c3cc(C#N)ccc3c1C2=O [alectinib] | – | – | 2.17 | 62 | 0.306 | -2.36 | -5 | 12 | 15 | 0.0492 | 41 | – |
| CC(C)(C)c1nc(-c2cccc(NS(=O)(=O)c3c(F)cccc3F)c2F)c(-c2ccnc(N)n2)s1 [dabrafenib] | 17 | -7.58 | – | – | – | – | – | – | – | – | – | %-inhibition at 1 µmol/L, PKD3 [1, 8]: 93%; %-inhibition at 1 µmol/L, LYNb [7, 14]: 86%; %-inhibition at 1 µmol/L, PKCβ2 [7, 15]: -3%; %-inhibition at 1 µmol/L, SRM [7, 16]: 100% |
| CC#CC(=O)N1CCC[C@H]1c1nc(-c2ccc(C(=O)Nc3ccccn3)cc2)c2c(N)nccn12 [acalabrutinib] | – | – | -2 | 13 | -2.69 | -15 | -19 | -1.25 | -2 | -12 | 39 | %-inhibition at 1 µmol/L, EGFR [2, 26]: 19% |
| O=C(c1ccc(F)c(F)c1Nc1ccc(I)cc1F)N1CC(O)([C@@H]2CCCCN2)C1 [cobimetinib] | – | – | 4.41 | 18 | -2.75 | 4 | 7 | -0.687 | 8 | -2 | 1.37 | %-inhibition at 1 µmol/L, EGFR [2, 26]: 8% |
| C=CC(=O)Nc1cc(Nc2nccc(-c3cn(C)c4ccccc34)n2)c(OC)cc1N(C)CCN(C)C [osimertinib] | – | – | 28 | 27 | 2.2 | 6 | 26 | – | – | – | – | %-inhibition at 1 µmol/L, FYN [isoform b] [7]: 14%; %-inhibition at 1 µmol/L, LYNb [7]: 10%; %-inhibition at 1 µmol/L, PKCβ2 [7]: 17%; %-inhibition at 1 µmol/L, SRM [7]: 32% |
| Cc1cc(Nc2ncc(Cl)c(Nc3ccccc3S(=O)(=O)C(C)C)n2)c(OC(C)C)cc1C1CCNCC1 [ceritinib] | – | – | 46 | – | -4.7 | 36 | -5.59 | -4 | 11 | 4 | 40 | – |
| CO[C@@H]1[C@H](N(C)C(=O)c2ccccc2)C[C@H]2O[C@]1(C)n1c3ccccc3c3c4c(c5c6ccccc6n2c5c31)C(=O)NC4 [midostaurin] | – | – | – | 100 | – | – | -0.775 | – | – | – | – | %-inhibition at 1 µmol/L, EGFR [2, 26]: 69% |
| COc1cc(N2CCC(N3CCN(C)CC3)CC2)ccc1Nc1ncc(Cl)c(Nc2ccccc2P(C)(C)=O)n1 [brigatinib] | – | – | – | – | – | – | – | – | – | – | – | %-inhibition at 1 µmol/L, PKD3 [1]: 85%; %-inhibition at 1 µmol/L, EGFR [2]: 97%; %-inhibition at 1 µmol/L, TRKA [3]: 83%; %-inhibition AKT2 [4]: -1%; %-inhibition at 1 µmol/L, CLK3 [5]: 33%; %-inhibition at 1 µmol/L, SGK2 [6]: -8%; %-inhibition at 1 µmol/L, FYN [isoform b] [7]: 56%; %-inhibition at 1 µmol/L, LYNb [7]: 43%; %-inhibition at 1 µmol/L, PKCβ2 [7]: 31%; %-inhibition at 1 µmol/L, SRM [7]: 92% |
| C=CC(=O)N1CCC[C@@H](n2nc(-c3ccc(Oc4ccccc4)cc3)c3c(N)ncnc32)C1 [ibrutinib] | – | – | 5.48 | 59 | -3 | – | – | 87 | 100 | 1.78 | 102 | – |
| C[C@@H](Oc1cc(-c2cnn(C3CCNCC3)c2)cnc1N)c1c(Cl)ccc(F)c1Cl [crizotinib] | -5 | -2.31 | – | – | – | – | – | – | – | – | – | %-inhibition at 1 µmol/L, TRKA [3, 10]: 103%; %-inhibition AKT2 [4, 11]: -2.67%; %-inhibition at 1 µmol/L, LYNb [7]: 34%; %-inhibition at 1 µmol/L, PKCβ2 [7]: -1.6%; %-inhibition at 1 µmol/L, SRM [7]: 1.51% |
